Experimental data from patent publication US20210254056A1, “IDENTIFICATION AND TARGETED MODULATION OF GENE SIGNALING NETWORKS” (CAMP4 THERAPEUTICS CORPORATION, priority 2017, published 2021).

Tested on: hepatocytes
Assay: RNA-seq of hepatocytes treated with Phase III failure compounds
Details: for significant changes in gene expression: RNA-seq of Table 36, FPKM≥0.5, log 2(fold-change)≥1, q-value≤0.05; for significant modulation of expression of disease genes: q≤0.05, genes in the value or listed in the block; for significant modulation of expression of any of the genes analyzed: p≤0.05
Procedure: RNA-seq was performed to determine the effects of the compounds on hepatocytes.
Significance was determined by the criteria of FPKM≥0.5, a log 2(fold-change)≥1, and a […].

In the case of `COc1nc(N)nc2c1ncn2[C@@H]1O[C@H](COP(=O)(N[C@@H](C)C(=O)OCC(C)(C)C)Oc2cccc3ccccc23)[C@@H](O)[C@@]1(C)O` (stereo partly drawn) [bms-986094], the “Number (#) of genes having significantly changed expression” value is reported as 2079.

In the case of `CN[C@@]1(C)[C@@H]2CC[C@@H](C2)C1(C)C.Cl` [TC-5214 (R-Mecamylamine hydrochloride), R-Mecamylamine hydrochloride], the “significant changes in gene expression” value is reported as “not observed to cause any significant changes in gene expression”, the “significant modulation of expression of disease genes” value (RNA-seq, hepatocytes) is reported as “significantly (q≤0.05) modulate expression of GCSH” and the “log 2 fold change in expression of GCSH” value (RNA-seq, hepatocytes) is reported as −1.31.

In the case of `Cc1cc(C)c2c(c1)[C@@H](N(Cc1cc(C(F)(F)F)cc(C(F)(F)F)c1)c1nnn(C)n1)CCCN2C[C@H]1CC[C@H](C(=O)O)CC1` [Evacetrapib], the “significant changes in gene expression” value is reported as “not observed to cause any significant changes in gene expression” and the “significant modulation of expression of any of the genes analyzed” value (RNA-seq, hepatocytes) is reported as “not observed to significantly modulate expression”.

In the case of `CCCCCCCCCCCCCCCCOCCCOP(=O)(O)CO[C@H](CO)Cn1ccc(N)nc1=O` [CMX001 (Brincidofovir), Brincidofovir], the “significant changes in gene expression” value is reported as “not observed to cause any significant changes in gene expression”, the “significant modulation of expression of any of the genes analyzed” value (RNA-seq, hepatocytes) is reported as “not observed to significantly modulate expression” and the “effect on disease gene expression” value (RNA-seq, hepatocytes) is reported as “no effect on any disease gene”.

`COc1cc2ncnc(Nc3ccc(F)c(Cl)c3)c2cc1NC(=O)/C=C/CN1CCCCC1` [Dacomitinib (PF299804, PF299), Dacomitinib] was tested, and the “significant modulation of expression of any of the genes analyzed” value (RNA-seq, hepatocytes) was “not observed to significantly modulate expression”.

`Cc1ccc2c(=O)c3cccc(CC(=O)O)c3oc2c1C` [DMXAA] was tested, and the “significant changes in gene expression” value was “not observed to cause any significant changes in gene expression”, the “significant modulation of expression of any of the genes analyzed” value (RNA-seq, hepatocytes) was “not observed to significantly modulate expression” and the “effect on disease gene expression” value (RNA-seq, hepatocytes) was “no effect on any disease gene”.

With `CN[C@@]1(C)[C@@H]2CC[C@@H](C2)C1(C)C` [TC-5214] the “Number (#) of genes having significantly changed expression” value was 30.

For `Cn1cc(C2=C(c3cn(C4CCN(Cc5ccccn5)CC4)c4ccccc34)C(=O)NC2=O)c2ccccc21` [Enzstaurin], the “Number (#) of genes having significantly changed expression” value was 971.

In the case of `C1=C/COCc2cc(ccc2OCCN2CCCC2)Nc2nccc(n2)-c2cccc(c2)COC/1` [Pacritinib (SB1518), Pacritinib], the “significant modulation of expression of disease genes” value (RNA-seq, hepatocytes) is reported as “significantly (q≤0.05) modulate expression”.

`O=P(O)(NCCCl)NCCCl` [Palifosfamide] was tested, and the “significant modulation of expression of disease genes” value (RNA-seq, hepatocytes) was “significantly (q≤0.05) modulate expression of RMRP and FAM111B”, the “RNA-seq results: A1BG expression” value (gene A1BG, hepatocytes) was −0.13 and the “RNA-seq results: AGTR1 expression” value (gene AGTR1, hepatocytes) was −0.67. The “RNA-seq results: AGXT expression” value (gene AGXT, hepatocytes) was 0.30, the “RNA-seq results: AHI1 expression” value (gene AHI1, hepatocytes) was 0.06 and the “RNA-seq results: AMPD3 expression” value (gene AMPD3, hepatocytes) was −0.01. For the same compound, the “RNA-seq results: AMT expression” value (gene AMT, hepatocytes) was 0.13, the “RNA-seq results: ANGPTL3 expression” value (gene ANGPTL3, hepatocytes) was −0.28 and the “RNA-seq results: ANKS4B expression” value (gene ANKS4B, hepatocytes) was −0.16. For the same compound, the “RNA-seq results: ANKS6 expression” value (gene ANKS6, hepatocytes) was 0.12, the “RNA-seq results: ANPEP expression” value (gene ANPEP, hepatocytes) was −0.12 and the “RNA-seq results: AOC2 expression” value (gene AOC2, hepatocytes) was 0.34. For the same compound, the “RNA-seq results: APOA2 expression” value (gene APOA2, hepatocytes) was −0.53, the “RNA-seq results: APOA5 expression” value (gene APOA5, hepatocytes) was 0.00 and the “RNA-seq results: APOB expression” value (gene APOB, hepatocytes) was −0.23. The “RNA-seq results: COG5 expression” value (gene COG5, hepatocytes) was −0.03, the “RNA-seq results: COG6 expression” value (gene COG6, hepatocytes) was 0.08 and the “RNA-seq results: COL1A1 expression” value (gene COL1A1, hepatocytes) was 0.48. The “RNA-seq results: COX6A1 expression” value (gene COX6A1, hepatocytes) was −0.07, the “RNA-seq results: CP expression” value (gene CP, hepatocytes) was 0.16 and the “RNA-seq results: CPS1 expression” value (gene CPS1, hepatocytes) was 0.84. For the same compound, the “RNA-seq results: CPT1A expression” value (gene CPT1A, hepatocytes) was 1.06, the “RNA-seq results: CPT2 expression” value (gene CPT2, hepatocytes) was 0.33 and the “RNA-seq results: CROT expression” value (gene CROT, hepatocytes) was −0.69. For the same compound, the “RNA-seq results: CSPP1 expression” value (gene CSPP1, hepatocytes) was 0.17, the “RNA-seq results: CTC1 expression” value (gene CTC1, hepatocytes) was 0.2 and the “RNA-seq results: CTDSP2 expression” value (gene CTDSP2, hepatocytes) was 0.56. The “RNA-seq results: CTH expression” value (gene CTH, hepatocytes) was 1.87, the “RNA-seq results: CTNS expression” value (gene CTNS, hepatocytes) was 0.42 and the “RNA-seq results: CTSF expression” value (gene CTSF, hepatocytes) was 0.68. The “RNA-seq results: CTSK expression” value (gene CTSK, hepatocytes) was −0.49, the “RNA-seq results: CYB5A expression” value (gene CYB5A, hepatocytes) was 0.43 and the “RNA-seq results: CYB5R3 expression” value (gene CYB5R3, hepatocytes) was 0.05. The “RNA-seq results, CYP2B6 expression” value (gene CYP2B6, hepatocytes) was 0.03, the “RNA-seq results: CYP2B6 expression” value (gene CYP2B6, hepatocytes) was 0.58 and the “RNA-seq results, CYP2C19 expression” value (gene CYP2C19, hepatocytes) was 0.12. The “RNA-seq results: CYP2C19 expression” value (gene CYP2C19, hepatocytes) was 0.2, the “RNA-seq results, CYP2D6 expression” value (gene CYP2D6, hepatocytes) was 0.10 and the “RNA-seq results: CYP2D6 expression” value (gene CYP2D6, hepatocytes) was 0.47. For the same compound, the “RNA-seq results, CYP3A4 expression” value (gene CYP3A4, hepatocytes) was −0.49, the “RNA-seq results: CYP3A4 expression” value (gene CYP3A4, hepatocytes) was 2.11 and the “RNA-seq results, CYP7B1 expression” value (gene CYP7B1, hepatocytes) was −0.21. For the same compound, the “RNA-seq results: CYP7B1 expression” value (gene CYP7B1, hepatocytes) was 0.28, the “RNA-seq results: CYP27A1 expression” value (gene CYP27A1, hepatocytes) was 0.51 and the “RNA-seq results, CYP39A1 expression” value (gene CYP39A1, hepatocytes) was −0.43. For the same compound, the “RNA-seq results: CYP39A1 expression” value (gene CYP39A1, hepatocytes) was 0.62, the “RNA-seq results: DAO expression” value (gene DAO, hepatocytes) was −1.2 and the “RNA-seq results: DBT expression” value (gene DBT, hepatocytes) was −0.43. The “RNA-seq results: DCDC2 expression” value (gene DCDC2, hepatocytes) was −2.5, the “RNA-seq results: DCXR expression” value (gene DCXR, hepatocytes) was −0.23 and the “RNA-seq results: FABP1 expression” value (gene FABP1, hepatocytes) was −0.17. The “RNA-seq results: FADD expression” value (gene FADD, hepatocytes) was −0.29, the “RNA-seq results: FAM111A expression” value (gene FAM111A, hepatocytes) was −0.05 and the “RNA-seq results: FAM111B expression” value (gene FAM111B, hepatocytes) was −2.02. For the same compound, the “RNA-seq results: FAN1 expression” value (gene FAN1, hepatocytes) was −0.36, the “RNA-seq results: FARS2 expression” value (gene FARS2, hepatocytes) was −0.34 and the “RNA-seq results: FASLG expression” value (gene FASLG, hepatocytes) was −1.44. The “RNA-seq results: FGA expression” value (gene FGA, hepatocytes) was 0.12, the “RNA-seq results: FGD1 expression” value (gene FGD1, hepatocytes) was −0.27 and the “RNA-seq results: FGFR2 expression” value (gene FGFR2, hepatocytes) was −0.22. For the same compound, the “RNA-seq results: FIG4 expression” value (gene FIG4, hepatocytes) was 0.06, the “RNA-seq results: FIS1 expression” value (gene FIS1, hepatocytes) was −0.18 and the “RNA-seq results: FTCD expression” value (gene FTCD, hepatocytes) was 0.32. For the same compound, the “RNA-seq results: FTH1 expression” value (gene FTH1, hepatocytes) was 0.48, the “RNA-seq results: FUCA1 expression” value (gene FUCA1, hepatocytes) was 0.24 and the “RNA-seq results: FXN expression” value (gene FXN, hepatocytes) was −0.02. For the same compound, the “RNA-seq results: G6PC3 expression” value (gene G6PC3, hepatocytes) was −0.25, the “RNA-seq results: G6PC expression” value (gene G6PC, hepatocytes) was 3.27 and the “RNA-seq results: G6PD expression” value (gene G6PD, hepatocytes) was 0.13. For the same compound, the “RNA-seq results: GALK1 expression” value (gene GALK1, hepatocytes) was −0.37, the “RNA-seq results: GALK2 expression” value (gene GALK2, hepatocytes) was −0.25 and the “RNA-seq results: GALT expression” value (gene GALT, hepatocytes) was 0.41. The “RNA-seq results: GATA6 expression” value (gene GATA6, hepatocytes) was 0.11, the “RNA-seq results: GATM expression” value (gene GATM, hepatocytes) was −0.46 and the “RNA-seq results: GBA expression” value (gene GBA, hepatocytes) was −0.11. The “RNA-seq results: GBE1 expression” value (gene GBE1, hepatocytes) was 0.2, the “RNA-seq results: GCH1 expression” value (gene GCH1, hepatocytes) was −0.38 and the “RNA-seq results: GCKR expression” value (gene GCKR, hepatocytes) was −0.08. For the same compound, the “RNA-seq results: GCLC expression” value (gene GCLC, hepatocytes) was 0.14, the “RNA-seq results: GOSH expression” value (gene GOSH, hepatocytes) was −0.4 and the “RNA-seq results: RRM2B” value (gene RRM2B, hepatocytes) was −0.21. The “RNA-seq results: RSAD1” value (gene RSAD1, hepatocytes) was 0.12, the “RNA-seq results: SAMHD1” value (gene SAMHD1, hepatocytes) was −0.34 and the “RNA-seq results: SC5D” value (gene SC5D, hepatocytes) was −0.37. For the same compound, the “RNA-seq results: SCARB1” value (gene SCARB1, hepatocytes) was 0.05, the “RNA-seq results: SCN9A” value (gene SCN9A, hepatocytes) was −0.07 and the “RNA-seq results: SDCCAG8” value (gene SDCCAG8, hepatocytes) was −0.12. For the same compound, the “RNA-seq results: SEPN1” value (gene SEPN1, hepatocytes) was 0.00, the “RNA-seq results: SERAC1” value (gene SERAC1, hepatocytes) was −0.07 and the “RNA-seq results: SERPINA1” value (gene SERPINA1, hepatocytes) was −0.19. The “RNA-seq results: SERPING1” value (gene SERPING1, hepatocytes) was −0.31, the “RNA-seq results: SERPINI1” value (gene SERPINI1, hepatocytes) was −0.28 and the “RNA-seq results: SETBP1” value (gene SETBP1, hepatocytes) was 0.11. For the same compound, the “RNA-seq results: SFXN4” value (gene SFXN4, hepatocytes) was −0.14, the “RNA-seq results: SLC10A1” value (gene SLC10A1, hepatocytes) was −0.40 and the “RNA-seq results: SLC10A3” value (gene SLC10A3, hepatocytes) was 0.53. For the same compound, the “RNA-seq results: SLC10A5” value (gene SLC10A5, hepatocytes) was −0.06, the “RNA-seq results: SLC10A7” value (gene SLC10A7, hepatocytes) was −0.46 and the “RNA-seq results: SLC11A2” value (gene SLC11A2, hepatocytes) was −0.01. For the same compound, the “RNA-seq results: SLC19A1” value (gene SLC19A1, hepatocytes) was −0.10, the “RNA-seq results: SLC19A2” value (gene SLC19A2, hepatocytes) was −0.05 and the “RNA-seq results: SLC19A3” value (gene SLC19A3, hepatocytes) was −0.26. The “RNA-seq results: SLC22A1” value (gene SLC22A1, hepatocytes) was −0.18, the “RNA-seq results: SLC22A5” value (gene SLC22A5, hepatocytes) was 0.03 and the “RNA-seq results: SLC25A1” value (gene SLC25A1, hepatocytes) was 0.36. For the same compound, the “RNA-seq results: SLC25A10” value (gene SLC25A10, hepatocytes) was 0.09, the “RNA-seq results: SLC25A12” value (gene SLC25A12, hepatocytes) was 0.10 and the “RNA-seq results: SLC25A13” value (gene SLC25A13, hepatocytes) was −0.06. The “RNA-seq results: SLC25A15” value (gene SLC25A15, hepatocytes) was 0.04, the “RNA-seq results: SLC25A19” value (gene SLC25A19, hepatocytes) was −0.02 and the “RNA-seq results: SLC25A20” value (gene SLC25A20, hepatocytes) was −0.21. The “RNA-seq results: SLC25A29” value (gene SLC25A29, hepatocytes) was 0.39 and the “RNA-seq results: SLC25A32” value (gene SLC25A32, hepatocytes) was −0.19.
